The values that follow come from patent EP0342577B1, “Use of dihydropyridine derivatives for the prophylaxis or treatment of cerebral circulation disorders” (YOSHITOMI PHARMACEUTICAL INDUSTRIES, LTD., priority 1988, dated 1989).

Test [1] deals with Coronary blood flow amount. In words: Selectivity in cerebral hyperkinemic action: coronary blood flow amount (electromagnetic flow meter, left coronary artery circumflex ramus). In kind it is in vivo. As to conditions: dogs, intravenous; for Coronary blood flow amount ED200: dose at which the rate of increase is 200%. The method, then:
(§1) The selectivity in cerebral hyperkinemic action was studied by examining the rates of increase in coronary blood flow amount and cerebral blood flow amount as to various dihydropyridine derivatives.
(§2) Various dihydropyridine derivatives were intravenously administered to dogs (weighing 9 - 16 kg, 4 animals per group) at a dose of 1 - 100 µg/kg body weight. At the lapse of 1, 3, 5, 10, 30, 60, 90 and 120 minutes after the intravenous administration, the coronary blood flow amount and cerebral blood flow amount were measured, and the rates of increase in the blood flow amount were estimated.
Coronary blood flow was measured by equipping the left coronary artery circumflex ramus with the probe of the electromagnetic flow meter, and recorded on the polygraph.
(§3) The ED200 (µg/kg body weight) indicates the dose at which the rate of increase is 200%.

The subject of test [2] is Cerebral blood flow amount. In words: Selectivity in cerebral hyperkinemic action: cerebral blood flow amount (electromagnetic flow meter, left vertebral artery). In kind it is in vivo. As to conditions: dogs, intravenous; for Cerebral blood flow amount ED200: dose at which the rate of increase is 200%. The method, then: as §1, §2
(§4) Cerebral blood flow was measured by equipping the left vertebral artery with the probe of the electromagnetic flow meter, and recorded continuously on the polygraph.
as §3

Test [3] has as its system Cerebral blood flow amount. In words: Duration time of cerebral hyperkinemic action: cerebral blood flow with the lapse of time. In kind it is in vivo. On the set-up: unit not given here. As to conditions: dogs, intravenous, 30 µg/kg body weight. The method, then: as §2, §4
By examining the rate of increase in cerebral blood flow by various dihydropyridine derivatives with the lapse of time, the duration of cerebral hyperkinemic action was studied.

Test [4] has as its system both common carotid arteries-ligated rats. In words: Inhibitory effect on symptoms of both common carotid arteries-ligated rats. In kind it is in vivo, Spontaneously hypertensive rats (SHR·SR). The following applies: SHR·SR rats, oral, dose 0.1 mg/kg, given one hour before ligation; neural symptom score 0 (normal) to 4 (death) two hours after skin suture; control (None) 2.8. The method, then:
Spontaneously hypertensive rats (SHR·SR; Japan Charles River Co.) were used for the experiment (9-10 rats per group).
The compound 2-2 of the present invention was orally administered forsively to the rats at a dose of 10 ml/kg. To the control group was administered 0.3% Tween® 80 solely at a dose of 10 ml/kg. One hour later, cervical part was incised and both common carotid arteries were ligated with a suture thread almost simultaneously. Two hours after skin suture, observation was made for their neural symptom and/or death. The results are expressed in five-rank scores below.

The structures appear in SMILES notation.

For the compound `COC(=O)C1=C(C)NC(C)=C(C(=O)OCCc2ccc(N3CCN(C(c4ccccc4)c4ccccc4)CC3)cc2)C1c1cc(C#N)ccn1` (stereo not drawn) [Compound 1-2, 2-[p-(4-Benzhydrylpiperazino)phenyl]ethyl methyl 2,6-dimethyl-4-(4-cyano-2-pyridyl)-1,4-dihydropyridine-3,5-dicarboxylate], the “Coronary blood flow amount Increase rate (%)” value came out at 131% in test [1] (dose 10 µg/kg body weight), 156% in test [1] (dose 30 µg/kg body weight) and 246% in test [1] (dose 100 µg/kg body weight). Besides, in test [1], the “Coronary blood flow amount ED200” value is given as 48 µg/kg body weight. The “Cerebral blood flow amount Increase rate (%)” value in test [2] (dose 10 µg/kg body weight) turned out to be 186%; in test [2] (dose 30 µg/kg body weight), 223%; in test [2] (dose 100 µg/kg body weight), 385%. Further, the “Cerebral blood flow amount ED200” value in test [2] is 15 µg/kg body weight. Further, the “Rate of increase in cerebral blood flow amount” value (from here on “Rate of increase”) in test [3] (5 min after administration) worked out at 183; in test [3] (10 min after administration), 222; in test [3] (30 min after administration), 190; in test [3] (60 min after administration) it was 151; in test [3] (120 min after administration), 132.

Take `COC(=O)C1=C(C)NC(C)=C(C(=O)OCCc2ccc(N3CCN(C(c4ccccc4)c4ccccc4)CC3)cc2)C1c1cccc([N+](=O)[O-])c1` (stereo not drawn) [Compound 2-2, 2-[p-(4-Benzhydrylpiperazino)phenyl]ethyl methyl 2,6-dimethyl-4-(3-nitrophenyl)-1,4-dihydropyridine-3,5-dicarboxylate]: the “Coronary blood flow amount Increase rate (%)” value in test [1] (dose 10 µg/kg body weight) is 125%; in test [1] (dose 30 µg/kg body weight), 174%; in test [1] (dose 100 µg/kg body weight), 207%. Besides, the “Coronary blood flow amount ED200” value in test [1] was determined as 75 µg/kg body weight. The “Cerebral blood flow amount Increase rate (%)” value in test [2] (dose 10 µg/kg body weight) was 197%; in test [2] (dose 30 µg/kg body weight), 301%; in test [2] (dose 100 µg/kg body weight) it was 433%. For the same compound, the “Cerebral blood flow amount ED200” value in test [2] was determined as 11 µg/kg body weight. Besides, the “Rate of increase” value in test [3] (5 min after administration) is reported as 137; in test [3] (10 min after administration), 170; in test [3] (30 min after administration), 285; in test [3] (60 min after administration) it was 300; in test [3] (120 min after administration), 237. For the same compound, in test [4], the Average score is on record as 1.7.

In the case of `COC(=O)C1=C(C)NC(C)=C(C(=O)OCCN(C)Cc2ccccc2)C1c1cccc([N+](=O)[O-])c1` (stereo not drawn) [Nicardipine, reference compound], the figures for the “Coronary blood flow amount Increase rate (%)” value in test [1] (dose 3 µg/kg body weight), in test [1] (dose 10 µg/kg body weight) and in test [1] (dose 30 µg/kg body weight) were 154%, 206% and 240%, respectively. Moreover, the “Coronary blood flow amount ED200” value in test [1] stood at 9.7 µg/kg body weight. The “Cerebral blood flow amount Increase rate (%)” value in test [2] (dose 3 µg/kg body weight) stood at 165%; in test [2] (dose 10 µg/kg body weight), 197%; in test [2] (dose 30 µg/kg body weight), 238%. For the same compound, in test [2], the “Cerebral blood flow amount ED200” value is 9.7 µg/kg body weight. Further, the “Rate of increase” value in test [3] (5 min after administration) is given as 237; in test [3] (10 min after administration), 189; in test [3] (30 min after administration), 129; in test [3] (60 min after administration), 109.

Regarding `COCCOC(=O)C1=C(C)NC(C)=C(C(=O)OC(C)C)C1c1cccc([N+](=O)[O-])c1` (stereo not drawn) [Nimodipine, reference compound], the “Coronary blood flow amount Increase rate (%)” value in test [1] (dose 1 µg/kg body weight) is 125%; in test [1] (dose 3 µg/kg body weight) it was 141%; in test [1] (dose 10 µg/kg body weight) it was 191%. Besides, in test [1], the “Coronary blood flow amount ED200” value is on record as 16 µg/kg body weight. Besides, the “Cerebral blood flow amount Increase rate (%)” value stood at 146% in test [2] (dose 1 µg/kg body weight), 167% in test [2] (dose 3 µg/kg body weight) and 196% in test [2] (dose 10 µg/kg body weight). Also, in test [2], the “Cerebral blood flow amount ED200” value is 13 µg/kg body weight. The “Rate of increase” value turned out to be 163 in test [3] (5 min after administration), 152 in test [3] (10 min after administration), 129 in test [3] (30 min after administration) and 113 in test [3] (60 min after administration).
